Measurements taken from article PMC6136390, “Coptisine-induced inhibition of Helicobacter pylori: elucidation of specific mechanisms by probing urease active site and its maturation process” (Journal of Enzyme Inhibition and Medicinal Chemistry, 2018).
Where two headings read alike, the source gives them in different places.

What was measured:
[1] = tested on: H. pylori strains; assay: Minimal bactericidal concentration assay (broth dilution); format: cell-based, Helicobacter pylori
Excerpt: Fourteen H. pylori strains were used in this study. NCTC 11637 and NCTC 26695 strains were purchased from American Type Culture Collection. Sydney Strain-1 (SS1) was kindly provided by Prof. Richard Ferrero of Monash University, Australia. Clinical isolate ICDC 111001 was provided by Prof. Zhang Jian-zhong of the Chinese Center for Disease Control and Prevention, China. Ten clinical isolates (Hp1868, Hp1869, Hp1870, Hp1871, Hp1872, Hp1873, Hp1874, Hp1875, Hp1876, and Hp1877) were obtained from Renji Hospital, Shanghai Jiaotong University.
All strains were cultured in Columbia agar base containing 7% sheep blood at 37 °C in a micro-aerophilic environment (5% O2, 10% CO2, and 85% N2). After 3 days, H. pylori was scraped and suspended in phosphate buffered saline (PBS). Turbidimetry was employed to adjust the concentrations of different H. pylori strains (turbidity equivalent to 1.0 McFarland standard). Crude HPU was obtained according to the method described by Matsubara et al.[42]
The broth dilution method was used to determine the minimal bactericidal concentrations (MBCs) of coptisine (25, 37.5, 50, 62.5, 75, 100, and 125 μg/mL) against three H. pylori standard strains (SS1, NCTC 11637, and NCTC 26695) and eleven clinical isolates (ICDC 111001, HP 1868, HP 1869, HP 1870, HP 1871 and HP 1872, HP 1873, HP 1874, HP 1875, HP 1876, and HP 1877). In brief, H. pylori suspension (McFarland = 1.0) was exposed to DMSO (control) and coptisine at 2–4 times MIC in BHI with 10% FBS. After shaking at 120 rpm in the tri-gas incubator for 6 h, 100 μL samples were removed and cultured in Columbia blood agar base[43]. MBC was defined as a 99.9% decrease in viability compared with the control. The experiment was repeated twice.

[2] = biological target: T1, UreG dimers (Helicobacter pylori, UniProt Q09066); assay: Nickel uptake assay (dialysis, atomic absorption spectroscopy); format: biochemical; settings: 25, 50 and 100 μM coptisine, 2.5 μM UreG dimer, versus control, all p < 0.01
T1 construct: HisSUMO (N, cleaved yes); made in house; host or cells: Escherichia coli
T1 sequence (Q09066 whole entry): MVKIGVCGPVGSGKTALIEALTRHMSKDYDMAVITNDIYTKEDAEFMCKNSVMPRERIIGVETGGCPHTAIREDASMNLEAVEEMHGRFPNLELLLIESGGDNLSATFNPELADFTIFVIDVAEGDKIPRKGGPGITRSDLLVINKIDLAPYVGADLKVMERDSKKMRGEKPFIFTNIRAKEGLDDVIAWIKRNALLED
Method: UreG dimers were obtained using GTPγS as described previously. Briefly, the UreG dimer was purified by incubating apo-UreG at 3 mg/mL on ice with 1 mM GTP, 2 mM MgSO4, and 0.5 mM NiSO4 for 15 min. Nickel-charged UreG dimers were then separated from excess GTP and nickel using a Sephadex G25 desalting column. UreG dimers (2.5 μM) were injected into dialysis bag (6–8 kDa) and mixed with different concentrations of coptisine (25, 50, or 100 μM) or DMSO (control). The dialysis bag was sealed and placed in beakers containing UreG dimer buffer at 37 °C in a water bath. After 30 min, dialysis bags were placed in fresh buffer and the sample was incubated for 2 h at 4 °C with continuous shaking to initiate dialysis. The dialysis process was repeated three times. Samples were then removed and nickel concentrations were measured using atomic absorption spectroscopy (AA-7000, SHIMADZU). Nickel concentration was determined by comparing measurements against a standard curve of known nickel concentrations.

[3] = biological target: T2, UreG dimer (Helicobacter pylori, UniProt Q09066); assay: UreG dimer formation inhibition assay (size exclusion chromatography); format: biochemical; settings: 500 μM coptisine, 300 μM GTP, 5 μM UreG monomer, 2.5 μM NiSO4, 60 min
T2 construct: HisSUMO (N, cleaved yes); made in house; host or cells: Escherichia coli
T2 sequence (Q09066 whole entry): as above
Method: Size exclusion chromatography technology was used to analyse the effects of coptisine on UreG dimer formation. Experiment was carried out in the buffer containing 5 μM UreG monomer and 2.5 μM NiSO4, and divided into the following three groups: 300 μM GTP (positive control), buffer A (negative control), and 300 μM GTP +500 μM coptisine. After reaction for 60 min, samples were then injected into a Superdex 75 analytical gel filtration column pre-equilibrated with buffer A.

[4] = biological target: T3, jack bean urease (JBU) (Canavalia ensiformis, UniProt P07374); assay: Urease inhibition assay in vitro (modified Berthelot method); format: biochemical
T3 construct: purchased Sigma Aldrich (Steineheim, Germany) type III (catalogue number not given)
T3 sequence (P07374 whole entry, looked up): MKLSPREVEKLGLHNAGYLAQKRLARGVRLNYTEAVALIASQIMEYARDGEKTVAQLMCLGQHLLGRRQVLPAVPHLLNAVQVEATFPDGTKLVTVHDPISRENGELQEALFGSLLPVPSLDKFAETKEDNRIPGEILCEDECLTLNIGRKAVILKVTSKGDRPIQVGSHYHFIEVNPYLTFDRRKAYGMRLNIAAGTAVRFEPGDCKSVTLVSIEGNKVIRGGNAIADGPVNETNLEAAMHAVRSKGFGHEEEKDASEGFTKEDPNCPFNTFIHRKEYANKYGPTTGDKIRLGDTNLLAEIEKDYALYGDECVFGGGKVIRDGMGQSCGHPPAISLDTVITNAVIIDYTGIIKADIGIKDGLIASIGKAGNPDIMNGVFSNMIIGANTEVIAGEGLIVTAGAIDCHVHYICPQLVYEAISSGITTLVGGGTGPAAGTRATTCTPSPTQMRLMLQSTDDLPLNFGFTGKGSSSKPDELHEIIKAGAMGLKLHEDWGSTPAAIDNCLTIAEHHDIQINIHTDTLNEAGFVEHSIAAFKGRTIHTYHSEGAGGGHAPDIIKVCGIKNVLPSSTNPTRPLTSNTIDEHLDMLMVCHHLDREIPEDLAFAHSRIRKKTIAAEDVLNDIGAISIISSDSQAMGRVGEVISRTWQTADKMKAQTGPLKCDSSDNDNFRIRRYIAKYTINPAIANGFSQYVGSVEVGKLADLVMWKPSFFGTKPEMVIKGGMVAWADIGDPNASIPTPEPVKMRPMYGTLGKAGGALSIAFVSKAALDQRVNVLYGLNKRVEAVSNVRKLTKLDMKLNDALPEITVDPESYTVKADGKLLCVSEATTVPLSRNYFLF
Method: This assay was performed using the modified Berthelot method (phenol-hypochlorite) in 96 well plates. At the beginning of each reaction, different concentrations of urease solution and 150 mM urea as a substrate were mixed in 20 mM HEPES buffer (pH 7.5) at 37 °C. After a 20-min reaction, urease activity was tested by measuring the concentration of ammonia produced by the reaction at 595 nm using the microplate reader (Thermo Fisher Multiskan FC, Instruments, Inc., USA) at ambient temperature. […] One unit (U) of urease activity was defined as the amount of urease required to catalyse 1 μmol urea per min. These experiments were repeated in triplicate.
Coptisine’s ability to inhibit urease activity was determined by measuring amounts of ammonia produced using the modified Berthelot method described above. The assay mixture, which contained 200 μL of enzyme and 200 μL of coptisine solution (0.16–2.51 mM) in 200 μL of 20 mM HEPES buffer (pH 7.5), was incubated for 20 min at 37 °C in 96-well plates. The reaction was then initiated by adding urea solution (150 mM) to determine residual urease activity. AHA was used as a standard urease inhibitor. […] Residual activity (RA %) for each assay was calculated using the following equation: RA % = (activity with inhibitors/activity without inhibitors) × 100%. […]

Work on `c1c2c(cc3c1OCO3)-c1cc3ccc4c(c3c[n+]1CC2)OCO4` [Coptisine] yielded an MBC ([1]; Helicobacter pylori, NCTC11637, strain NCTC 11637, pH = 7.2, read-out: MBC) of 62.5 mg/L, an MBC ([1]; Helicobacter pylori, NCTC26695, strain NCTC 26695, pH = 7.2, read-out: MBC) of 37.5 mg/L and an MBC ([1]; Helicobacter pylori, clinical isolate HP 1868, pH = 7.2, read-out: MBC) of 62.5 mg/L. For the same molecule, the MBC ([1]; Helicobacter pylori, clinical isolate HP 1869 (MET resistance), pH = 7.2, read-out: MBC) was 62.5 mg/L, the MBC ([1]; Helicobacter pylori, clinical isolate HP 1870 (CLR and MET resistance), pH = 7.2, read-out: MBC) was 37.5 mg/L and the MBC ([1]; Helicobacter pylori, clinical isolate HP 1871 (MET resistance), pH = 7.2, read-out: MBC) was 37.5 mg/L. It also gave an MBC ([1]; Helicobacter pylori, clinical isolate HP 1872, pH = 7.2, read-out: MBC) of 37.5 mg/L, an MBC ([1]; Helicobacter pylori, clinical isolate HP 1873, pH = 7.2, read-out: MBC) of 75 mg/L and an MBC ([1]; Helicobacter pylori, clinical isolate HP 1874, pH = 7.2, read-out: MBC) of 100 mg/L. The MBC ([1]; Helicobacter pylori, clinical isolate HP 1875, pH = 7.2, read-out: MBC) was 75 mg/L, the MBC ([1]; Helicobacter pylori, clinical isolate HP 1876 (CLR and MET resistance), pH = 7.2, read-out: MBC) was 75 mg/L and the MBC ([1]; Helicobacter pylori, clinical isolate HP 1877, pH = 7.2, read-out: MBC) was 125 mg/L. For the same molecule, the MBC ([1]; Helicobacter pylori, clinical isolate ICDC 111001, pH = 7.2, read-out: MBC) was 50 mg/L, the MBC ([1]; Helicobacter pylori, strain SS1, pH = 7.2, read-out: MBC) was 37.5 mg/L and the MBC/MIC ([1]; clinical isolate HP 1868) was 1.25. The MBC/MIC ([1]; clinical isolate HP 1869) was 1.25, the MBC ([1]; clinical isolate HP 1869 (MET resistance), pH = 7.2) was 62.5 mg/L and the MBC/MIC ([1]; clinical isolate HP 1870) was 1.5. The MBC ([1]; clinical isolate HP 1870 (CLR and MET resistance), pH = 7.2) was 37.5 mg/L, the MBC/MIC ([1]; clinical isolate HP 1871) was 1.5 and the MBC ([1]; clinical isolate HP 1871 (MET resistance), pH = 7.2) was 37.5 mg/L. The MBC/MIC ([1]; clinical isolate HP 1872) was 1.5, the MBC/MIC ([1]; clinical isolate HP 1873) was 1.5 and the MBC/MIC ([1]; clinical isolate HP 1874) was 2. For the same molecule, the MBC/MIC ([1]; clinical isolate HP 1875) was 1.5, the MBC/MIC ([1]; clinical isolate HP 1876) was 1.5 and the MBC ([1]; clinical isolate HP 1876 (CLR and MET resistance), pH = 7.2) was 75 mg/L. For the same molecule, the MBC/MIC ([1]; clinical isolate HP 1877) was 2.5, the MBC/MIC ([1]; clinical isolate ICDC 111001) was 2 and the MBC/MIC ([1]; strain NCTC 11637) was 2.5. The MBC/MIC ([1]; strain NCTC 26695) was 1.5, the MBC/MIC ([1]; strain SS1) was 1.5 and the “bound nickel concentrations of UreG dimers” value [2] was “markedly decreased”. For the same molecule, the UreG dimerisation [3] was “obviously inhibited” and the IC50 [4] was 260 ± 20 µM.
